These results are taken from article PMC3286601 (Biochemistry, 2012).

Read-outs that look alike come from different tables or passages of the source.

Data set [1] concerns the target T1, wild-type Pseudomonas sp. strain CBS3 4-HB-CoA thioesterase (Pseudomonas sp., UniProt P56653).
T1 sequence (P56653 1-141): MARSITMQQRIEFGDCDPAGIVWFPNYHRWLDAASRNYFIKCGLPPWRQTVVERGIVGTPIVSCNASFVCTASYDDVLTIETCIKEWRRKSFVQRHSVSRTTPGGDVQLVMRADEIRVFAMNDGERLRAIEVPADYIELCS
Briefly: Steady-state product inhibition of thioesterase-catalyzed hydrolysis of 4-HB-CoA. It is filed as biochemical.

Data set [2] concerns the target T1, wild-type Pseudomonas sp. strain CBS3 4-HB-CoA thioesterase. Briefly: Steady-state kinetic constants. In kind it is biochemical. The conditions noted are these: substrate hydrolysis, pH 7.5, 25 °C.
The target is the same in data set [3]. Briefly: kcat pH rate profiles in H2O and D2O, solvent kinetic isotope effect on kcat. In kind it is biochemical. The conditions noted are these: for C1 (pH independent kcat plateau) / C2 (pH independent kcat plateau) / first break in kcat pH profile / second break in kcat pH profile: fit to equation 4.
For data set [4] the target is unchanged. Put plainly: Ligand binding to wild-type thioesterase by stopped-flow fluorescence quenching. The conditions noted are these: for kobs (apparent pseudo-first order binding rate constant): 0.54 µM thioesterase; for koff: read-out: koff (dissociation rate constant); for kon: read-out: kon (association rate constant).
Data set [5] concerns the target D17N thioesterase. The conditions noted are these: inert D17N thioesterase complex, steady-state fluorescence quenching; ref [5]; cited from earlier work.
The target of data set [6] is T1, wild-type Pseudomonas sp. strain CBS3 4-HB-CoA thioesterase. It is filed as biochemical.
For data set [7] the target is unchanged. In kind it is biochemical. The source holds these as a separate data set.
For data set [8] the target is unchanged. Put plainly: Steady-state multiple-turnover time courses. It is filed as biochemical.
The conditions of data set [9]: conjugate acid of the CoA thiolate anion leaving group; source not stated; cited from earlier work.

As a reminder, the Ki is a dissociation constant, usually derived from enzyme kinetics or from competition with a known ligand. Read a low Ki as a stronger hold on the target. On to `O=C(O)c1ccc(O)cc1` [4-HB, 4-hydroxybenzoate], for which affinity in [1] was put at a Ki of 1200 ± 200 µM.

The term Kd denotes the constant that tells how readily two partners part at equilibrium. For orientation: koff means the first-order rate constant of dissociation. What is called kon is the rate constant with which the complex forms. Turning to `CC(C)(COP(=O)(O)OP(=O)(O)OC[C@H]1O[C@@H](n2cnc3c(N)ncnc32)[C@H](O)[C@@H]1OP(=O)(O)O)[C@@H](O)C(=O)NCCC(=O)NCCSC(=O)c1ccc(O)cc1` [4-HB-CoA, 4-hydroxybenzoyl-CoA], the steady-state kcat in data set [2] turned out to be 18 s⁻¹. In data set [3] (H2O/D2O), the “pH independent isotope effect from ratio of C1 values” was determined as 3.8 and the “pH independent isotope effect from ratio of C2 values” was 3.7. For the same molecule, in data set [3] (buffered D2O), the “C1 (pH independent kcat plateau)” value is recorded as 1.3 ± 0.2, the “C2 (pH independent kcat plateau)” value came out at 15 ± 1, the “first break in kcat pH profile” value is reported as 5.1 ± 0.1 and the “second break in kcat pH profile” value was 8.0 ± 0.1. In data set [3] (buffered H2O), the “C1 (pH independent kcat plateau)” value is on record as 5.0 ± 0.1, the “C2 (pH independent kcat plateau)” value is on record as 55 ± 4, the “first break in kcat pH profile” value came to 5.15 ± 0.09 and the “second break in kcat pH profile” value was 7.70 ± 0.08. For the same molecule, the “D2O solvent kinetic isotope effect (SKIE) on kcat” value in data set [3] (pH independent) is on record as 3.7–3.8. In data set [4], the Kd amounted to 0.2 µM, the koff is 13 ± 5 s⁻¹ and the kon was determined as 6.5e+07 ± 2e+06 M⁻¹ s⁻¹. The “kobs (apparent pseudo-first order binding rate constant)” value in [4] (5.0 µM 4-HB-CoA (b38 prints 4.0 µM), pH 7.5, 25 °C) came to 280 ± 30 s⁻¹. In addition, in data set [4] (summary value in Conclusions), the “substrate-binding rate k1” value is ~ 70 µM^−1s^−1. Moreover, the Kd in data set [5] is 0.14 µM.

On to `CC(C)(COP(=O)(O)OP(=O)(O)OC[C@H]1O[C@@H](n2cnc3c(N)ncnc32)[C@H](O)[C@@H]1OP(=O)(O)O)[C@@H](O)C(=O)NCCC(=O)NCCSCC(=O)c1ccc(O)cc1` [4-HP-CoA, 4-hydroxyphenacyl-CoA], for which, in data set [4], the Kd was 0.33 µM, the koff came to 20 ± 5 s⁻¹ and the kon was 5.9e+07 ± 1e+06 M⁻¹ s⁻¹. The “kobs (apparent pseudo-first order binding rate constant)” value in data set [4] (5.3 µM 4-HP-CoA, 50 mM K+HEPES pH 7.5, 25 °C) amounted to 350 ± 4 s⁻¹.

In [1], `CC(C)(COP(=O)(O)OP(=O)(O)OC[C@H]1O[C@@H](n2cnc3c(N)ncnc32)[C@H](O)[C@@H]1OP(=O)(O)O)[C@@H](O)C(=O)NCCC(=O)NCCS` [CoA, coenzyme A] displayed a Ki of 250 ± 70 µM. Further, in data set [1] (noncompetitive inhibition of 4-HB-CoA hydrolysis, pH 7.5, 25 °C), the “Kii (intercept inhibition constant)” value was determined as 900 ± 300 µM. The Kd in data set [6], in data set [7] and in [8] was 300 µM in each case. Also, the “pKa of the conjugate acid” value in data set [9] was 9.7.
